The subject of this assay is Influenza A/WSN/33-Luciferase virus. Description: microbe, parasite or virus in culture. It counts as cell-based. The conditions noted are these: A549, 72 h, luciferase signal three days later, read-out: IC50 antiviral activity (Luciferase reporter assay).

Broadly, the IC50 is the midpoint of a concentration-inhibition curve.

`Cc1ccc(Nc2nn(-c3ccc(OC(F)(F)F)cc3)c(=O)c3ccccc23)c(=O)n1C` [Example 64, 4-[(1,6-dimethyl-2-oxo-3-pyridyl)amino]-2-[4-(trifluoromethoxy)phenyl]phthalazin-1-one]: the IC50 worked out at 0.355 µM.
Take `COC(=O)[C@H]1CCCN1CCn1cccc(Nc2nn(-c3ccc(OC(F)(F)F)cc3)c(=O)c3ccccc23)c1=O` [Example 6, methyl (2R)-1-[2-[2-oxo-3-[[4-oxo-3-[4-(trifluoromethoxy)phenyl]phthalazin-1-yl]amino]-1-pyridyl]ethyl]pyrrolidine-2-carboxylate]: the IC50 amounted to 0.052 µM.
With `CN(C)CCn1cncc(Nc2nn(-c3ccc(OC(F)(F)F)cc3)c(=O)c3ccccc23)c1=O` [Example 80, 4-[[1-[2-(dimethylamino)ethyl]-6-oxo-pyrimidin-5-yl]amino]-2-[4-(trifluoromethoxy)phenyl]phthalazin-1-one] the figure was 0.068 µM; with `Cn1cccc(Nc2nn(-c3ccc(OC(F)(F)F)cc3)c(=O)c3c2CCNC3)c1=O` [Example 134, 1-[(1-Methyl-2-oxo-3-pyridyl)amino]-3-[4-(trifluoromethoxy)phenyl]-5,6,7,8-tetrahydropyrido[3,4-d]pyridazin-4-one], 0.521 µM.
For the compound `Cn1cccc(Nc2nn(-c3ccc(C(F)(F)F)cc3)c(=O)c3c2CCC3)c1=O` [Example 60, 1-[(1-methyl-2-oxo-3-pyridyl)amino]-3-[4-(trifluoromethyl)phenyl]-6,7-dihydro-5H-cyclopenta[d]pyridazin-4-one], the IC50 came out at 0.011 µM.
`Cc1cc(OC(F)(F)F)ccc1-n1nc(Nc2cccn(C)c2=O)c2ccccc2c1=O` [Example 7, 4-[(1-methyl-2-oxo-3-pyridyl)amino]-2-[2-methyl-4-(trifluoromethoxy)phenyl]phthalazin-1-one]: the IC50 is 4.34 µM.
As for `CN(C)C(=O)COCCn1cccc(Nc2nn(-c3ccc(OC(F)(F)F)cc3)c(=O)c3ccccc23)c1=O` [Example 103, N,N-dimethyl-2-[2-[2-oxo-3-[[4-oxo-3-[4-(trifluoromethoxy)phenyl]phthalazin-1-yl]amino]-1-pyridyl]ethoxy]acetamide], the IC50 worked out at 0.038 µM.
On to `O=C(O)COCCn1cccc(Nc2nn(-c3ccc(OC(F)(F)F)cc3)c(=O)c3c2CCC3)c1=O` [Example 119, 2-[2-[2-oxo-3-[[4-oxo-3-[4-(trifluoromethoxy)phenyl]-6,7-dihydro-5H-cyclopenta[d]pyridazin-1-yl]amino]-1-pyridyl]ethoxy]acetic acid], for which the IC50 was 3.76 µM.
Regarding `O=c1c(Nc2nn(-c3ccc(OC(F)(F)F)cc3)c(=O)c3c2CCC3)cncn1CCN1CCCC1` [Example 52, 1-[[6-oxo-1-(2-pyrrolidin-1-ylethyl)pyrimidin-5-yl]amino]-3-[4-(trifluoromethoxy)phenyl]-6,7-dihydro-5H-cyclopenta[d]pyridazin-4-one], the IC50 stood at 0.062 µM.
Take `CCc1ccc2c(Nc3cccn(C)c3=O)nn(-c3ccc(OC(F)(F)F)cc3)c(=O)c2c1` [Example 82, 7-ethyl-4-[(1-methyl-2-oxo-3-pyridyl)amino]-2-[4-(trifluoromethoxy)phenyl]phthalazin-1-one]: the IC50 stood at 0.079 µM.
`COc1ccc2c(Nc3cccn(C)c3=O)nn(-c3ccc(OC(F)(F)F)cc3)c(=O)c2c1` [Example 16, 7-methoxy-4-[(1-methyl-2-oxo-3-pyridyl)amino]-2-[4-(trifluoromethoxy)phenyl]phthalazin-1-one]: the IC50 was 0.012 µM.
`COC(=O)[C@@H]1CCCN1CCn1cccc(Nc2nn(-c3ccc(OC(F)(F)F)cc3)c(=O)c3ccccc23)c1=O` [Example 79, methyl (2S)-1-[2-[2-oxo-3-[[4-oxo-3-[4-(trifluoromethoxy)phenyl]phthalazin-1-yl]amino]-1-pyridyl]ethyl]pyrrolidine-2-carboxylate]: the IC50 turned out to be 0.032 µM.
As to `Cn1cccc(Nc2nn(-c3ccc(OC(F)(F)F)cc3)c(=O)c3ccccc23)c1=O` [Example 1, 4-[(1-methyl-2-oxo-3-pyridyl)amino]-2-[4-(trifluoromethoxy)phenyl]phthalazin-1-one], the IC50 was 0.022 µM.
For the compound `COC(=O)CCCn1cccc(Nc2nn(-c3ccc(OC(F)(F)F)cc3)c(=O)c3ccccc23)c1=O` [Example 73, methyl 4-[2-oxo-3-[[4-oxo-3-[4-(trifluoromethoxy)phenyl]phthalazin-1-yl]amino]-1-pyridyl]butanoate], the IC50 is 0.049 µM.
Regarding `Cn1cccc(Nc2nn(-c3ccc(C(C)(C)C)nc3)c(=O)c3c2CCC3)c1=O` [Example 58, 3-(6-tert-butyl-3-pyridyl)-1-[(1-methyl-2-oxo-3-pyridyl)amino]-6,7-dihydro-5H-cyclopenta[d]pyridazin-4-one], the IC50 came out at 0.017 µM.
`Cn1cccc(Nc2nn(-c3ccc(OC(F)(F)F)cc3)c(=O)c3cc(CO)ccc23)c1=O` [Example 141, 7-(hydroxymethyl)-4-[(1-methyl-2-oxo-3-pyridyl)amino]-2-[4-(trifluoromethoxy)phenyl]phthalazin-1-one]: the IC50 amounted to 0.012 µM.
Take `CC(=O)N1CCc2c(Nc3cncn(C)c3=O)nn(-c3ccc(OC(F)(F)F)cc3)c(=O)c2C1` [Example 150, 6-Acetyl-1-[(1-methyl-6-oxo-pyrimidin-5-yl)amino]-3-[4-(trifluoromethoxy)phenyl]-7,8-dihydro-5H-pyrido[3,4-d]pyridazin-4-one]: the IC50 turned out to be 0.104 µM.
As for `Cn1cccc(Nc2nn(-c3ccc(C(C)(C)C)nc3)c(=O)c3c2CCCC3)c1=O` [Example 26, 2-(6-tert-butyl-3-pyridyl)-4-[(1-methyl-2-oxo-3-pyridyl)amino]-5,6,7,8-tetrahydrophthalazin-1-one], the IC50 stood at 0.025 µM.
With `CC(O)(CN)Cn1cccc(Nc2nn(-c3ccc(OC(F)(F)F)cc3)c(=O)c3c2CCC3)c1=O` (centres unmarked) [Example 166, 1-[[1-(3-Amino-2-hydroxy-2-methyl-propyl)-2-oxo-3-pyridyl]amino]-3-[4-(trifluoromethoxy)phenyl]-6,7-dihydro-5H-cyclopenta[d]pyridazin-4-one] the figure was 0.107 µM; with `COCCn1cccc(Nc2nn(-c3ccc(OC(F)(F)F)cc3)c(=O)c3ccccc23)c1=O` [Example 71, 4-[[1-(2-methoxyethyl)-2-oxo-3-pyridyl]amino]-2-[4-(trifluoromethoxy)phenyl]phthalazin-1-one], 0.054 µM.
For the compound `O=c1c(Nc2nn(-c3ccc(OC(F)(F)F)cc3)c(=O)c3c2CCC3)cccn1CC1COCCN1` (centres unmarked) [Example 127, 1-[[1-(morpholin-3-ylmethyl)-2-oxo-3-pyridyl]amino]-3-[4-(trifluoromethoxy)phenyl]-6,7-dihydro-5H-cyclopenta[d]pyridazin-4-one], the 50% inhibitory concentration (IC50) came to 0.033 µM.
Consider `CN1CCN(CCCn2cccc(Nc3nn(-c4ccc(OC(F)(F)F)cc4)c(=O)c4c3CCC4)c2=O)CC1` [Example 48, 1-[[1-[3-(4-methylpiperazin-1-yl)propyl]-2-oxo-3-pyridyl]amino]-3-[4-(trifluoromethoxy)phenyl]-6,7-dihydro-5H-cyclopenta[d]pyridazin-4-one], for which the IC50 came out at 0.018 µM.
As for `O=C(O)COCCn1cccc(Nc2nn(-c3ccc(OC(F)(F)F)cc3)c(=O)c3ccccc23)c1=O` [Example 112, 2-[2-[2-oxo-3-[[4-oxo-3-[4-(trifluoromethoxy)phenyl]phthalazin-1-yl]amino]-1-pyridyl]ethoxy]acetic acid], the IC50 is 2.99 µM.
For the compound `Cn1cccc(Nc2nn(-c3ccc(C(C)(C)C)cc3F)c(=O)c3c2CCC3)c1=O` [Example 53, 3-(4-tert-butyl-2-fluoro-phenyl)-1-[(1-methyl-2-oxo-3-pyridyl)amino]-6,7-dihydro-5H-cyclopenta[d]pyridazin-4-one], the IC50 came to 0.024 µM.
In the case of `CCc1cc(Nc2nn(-c3ccc(OC(F)(F)F)cc3)c(=O)c3c2CCC3)c(=O)n(C)c1` [Example 35, 1-[(5-ethyl-1-methyl-2-oxo-3-pyridyl)amino]-3-[4-(trifluoromethoxy)phenyl]-6,7-dihydro-5H-cyclopenta[d]pyridazin-4-one], the IC50 was 0.068 µM.
For the compound `COC(=O)C(C)(C)Cn1cccc(Nc2nn(-c3ccc(OC(F)(F)F)cc3)c(=O)c3ccccc23)c1=O` [Example 4, methyl 2,2-dimethyl-3-[2-oxo-3-[[4-oxo-3-[4-(trifluoromethoxy)phenyl]phthalazin-1-yl]amino]-1-pyridyl]propanoate], the IC50 is 0.489 µM.
On to `Cc1cc(OC(F)(F)F)ccc1-n1nc(Nc2cccn(C)c2=O)c2c(c1=O)CCC2` [Example 171, 1-[(1-Methyl-2-oxo-3-pyridyl)amino]-3-[2-methyl-4-(trifluoromethoxy)phenyl]-6,7-dihydro-5H-cyclopenta[d]pyridazin-4-one], for which the IC50 is 6.83 µM.
On to `CCOc1ccc(-n2nc(Nc3cccn(C)c3=O)c3c(c2=O)CCC3)cn1` [Example 55, 3-(6-ethoxy-3-pyridyl)-1-[(1-methyl-2-oxo-3-pyridyl)amino]-6,7-dihydro-5H-cyclopenta[d]pyridazin-4-one], for which the IC50 worked out at 0.303 µM.
On to `CC(=O)N1CCc2c(Nc3cc(F)cn(C)c3=O)nn(-c3ccc(OC(F)(F)F)cc3)c(=O)c2C1` [Example 87, 6-acetyl-1-[(5-fluoro-1-methyl-2-oxo-3-pyridyl)amino]-3-[4-(trifluoromethoxy)phenyl]-7,8-dihydro-5H-pyrido[3,4-d]pyridazin-4-one], for which the IC50 is 0.017 µM.
As to `COCCOc1ccc(-n2nc(Nc3cccn(C)c3=O)c3ccccc3c2=O)cc1` [Example 13, 2-[4-(2-methoxyethoxy)phenyl]-4-[(1-methyl-2-oxo-3-pyridyl)amino]phthalazin-1-one], the IC50 was determined as 1.51 µM.
On to `CCc1cc(Nc2nn(-c3ccc(OC(F)(F)F)cc3)c(=O)c3ccccc23)c(=O)n(C)c1` [Example 67, 4-[(5-ethyl-1-methyl-2-oxo-3-pyridyl)amino]-2-[4-(trifluoromethoxy)phenyl]phthalazin-1-one], for which the IC50 came out at 0.563 µM.
As for `Cn1cccc(Nc2nn(-c3ccc(OC(F)(F)F)cc3)c(=O)c3c2CC(C)(C)C3)c1=O` [Example 61, 6,6-dimethyl-1-[(1-methyl-2-oxo-3-pyridyl)amino]-3-[4-(trifluoromethoxy)phenyl]-5,7-dihydrocyclopenta[d]pyridazin-4-one], the IC50 is 0.06 µM.

The record behind these values is patent US10597380B2, “Pyridazinone-based broad spectrum anti-influenza inhibitors” (Hoffmann-La Roche Inc., priority 2017, dated 2020).
